Experimental data reported in article PMC7496275, “Pentathiepins: A Novel Class of Glutathione Peroxidase 1 Inhibitors that Induce Oxidative Stress, Loss of Mitochondrial Membrane Potential and Apoptosis in Human Cancer Cells” (Chemmedchem, 2020).

Experiments:
Assay type in all cases: cell-based, human
Gumbus cells [1] = experiment: Cell morphology after incubation; conditions: 25 μM, 6 h
HL-60 cells [2] = experiment: Cell morphology after incubation; conditions: 25 μM, 6 h
Gumbus cells [3] = experiment: Detection of reactive oxygen species (DCF-DA flow cytometry); conditions: 25 μM, 10 min
Source text: (§1) It has long been observed that pentathiepins are able to produce reactive oxygen species outside of cells.16, 17, 20 Whether ROS production can also occur in living cells has not yet been reported. To determine if 4 can produce ROS in HL‐60 and Gumbus cells, the cytosolic ROS detector 2′,7′‐dichlorofluorescin diacetate (DCF−DA) was used. […] Thus, pentathiepins appear capable of generating ROS inside living cells within a very short period of time.
(§2) Detection of reactive oxygen species: To detect cellular reactive oxygen species (ROS) a flow cytometry technique based on the use of the ROS‐sensor 2′,7′‐dichlorofluorescin diacetate (DCF‐DA) was used.38 Briefly, cells were collected in reaction tubes and washed with 500 μL phosphate buffered saline (PBS). The cell pellets were resuspended in 1 mL PBS and stained with 2 μL DCF‐DA stock solution (10 mM in DMSO) for 30 min at 37 °C. Then cells were washed with 500 μL PBS and suspended in 1 mL PBS followed by addition of […] 4 ([…]) to a final concentration of 25 μM. After an incubation period of 10 min cells were washed with PBS, resuspended in 500 μL PBS and analyzed by flow cytometry with a MACSQuant Analyzer 10 (Miltenyi Biotec, Germany) set at λ Ex/Em=488/530 nm.

HL-60 cells [4] = experiment: as above; conditions: 25 μM, 10 min
Source text: as §1, §2

HAP-1 cells = experiment: Alkaline comet assay; conditions: 25 μM, 15 min at 0 °C
Description: To assess the induction of DNA strand breaks by pentathiepin 4 the Comet Assay was used. The SISO and HAP‐1 cell lines were treated with either 1 % DMF (solvent control), 20 μM H2O2 (positive control) or 25 μM 4 for 15 min at 0 °C. The DNA in the comet head corresponds to still intact genomic DNA while the tail forms due to the damage of nuclear DNA (Figure 9B). […] For HAP‐1 cells a greater reduction of intact DNA from 86 % in control cells to 66 % in pentathiepin‐incubated cells was observed.
Alkaline comet assay to assess induction of DNA strand breaks: The method was adapted from Olive and Banath.40 The alkaline protocol allows for the detection of single and double strand breaks as well as alkali‐labile sites and is based on the different electrophoretic mobility of intact and damaged nuclear DNA. […] The induction of strand breaks creates free charged ends that drift out and form the characteristic comet tail. The percentage of DNA that is located in the comet head was selected as descriptor, which corresponds to the amount of still intact genomic DNA.
Briefly, SISO and HAP‐1 cells were harvested by trypsinization and a single cell suspension with 50 000 cells per mL PBS was prepared. Per condition 50 000 cells were incubated on ice (to impair DNA repair) with either the solvent control DMF (1.0 %), 20 μM H2O2 or 25 μM 4 for 15 min. Afterwards, 400 μL of the cell suspension were mixed with 1.2 mL 1 % low melting point agarose (Carl Roth, Germany) at 40 °C and evenly distributed on agarose‐precoated (GeneOn, Germany) glass slides (Thermo Fisher). After 3 min polymerization the slides were horizontally submerged in lysis buffer (1.2 M NaCl (Carl Roth, Germany), 0.1 % N‐Lauryl‐Sarcosinate (Merck), 0.1 M Na‐EDTA, 0.26 M NaOH) and placed at 4 °C overnight. Before electrophoresis at 0.6 V/cm for 25 min the slides were rinsed three times in rinse/electrophoresis buffer (0.002 M Na‐EDTA, 0.03 M NaOH). Afterwards, the slides were neutralized in distilled water and subsequently stained with 250 μL of a 10 μg/mL PI in water solution for 20 min. Finally, the slides were analyzed with a Leica DMi8 fluorescent microscope and LASX software (Leica, Germany) and comets were scored with CometScore 2.0 (Rex A. Hoover, www.rexhoover.com). At least 100 comets were scored per condition.

SISO cells = experiment: Fluorescence microscopy for lipid peroxidation (BODIPY 581/591); conditions: 25 μM, 24 h
Description: In another set of experiments, LPO was visualized by fluorescence microscopy with a dye for lipid peroxides, BODIPY 581/591. […] Together, our results point to apoptosis and not ferroptosis as the mechanism of cell death induced by 4.
Fluorescence microscopy for the detection of lipid peroxidation: SISO cells (250 000 cells) were seeded out in 6‐well plates with an inserted coverslip. Cells were allow to attach for 24 h and then exposed to 25 μM 4 or 100 μM tert‐butyl‐hydroperoxide as a positive control. After 24 h coverslips were washed with PBS and stained with 1 μM BODIPY 581/591 in culture medium for 30 min. Cells on the coverslips were then mounted and examined with a Leica DMi8 fluorescence microscope at λ ex/em=460–500/512–542 nm for the oxidized BODIPY 581/591 and λ ex/em=540–581/592–668 for the reduced form.

## CCOc1c2c(c3cnc4cc(C)c(C)cc4n13)SSSSS2 [Compound 4]
Gumbus cells [1]
  change in morphology: membrane blebbing
HL-60 cells [2]
  change in morphology: membrane blebbing
Gumbus cells [3]
  ROS formation: significant burst of ROS
HL-60 cells [4]
  ROS formation: rapid but not as intense as with the Gumbus line
HAP-1 cells
  percentage of intact DNA in comet head: 66%
SISO cells
  lipid peroxidation (LPO): no indication for LPO
